Values quoted from earlier work, collected in the PKSmart pharmacokinetics tables (Seal et al. 2025).

Assay: not given per row; by the article one of three: Lombardo et al. 2013, J Clin Pharmacol 53:178, doi 10.1177/0091270012440282; 'New Drugs at FDA', novel drug approvals for 2021 and 2022 (the article's reference 43); Yap, Li, Chen 2006, J Mol Graph Model 24:383, doi 10.1016
Conditions: human; for Vd / clearance / half-life: in vivo; for fraction unbound: plasma

In the case of `O=C(c1ccc(NS(=O)(=O)c2cccc3cccnc23)cc1)N1CCN(CC2CC2)CC1`, the Vd is given as 0.71 L/kg, the clearance is given as 3.47 mL/min/kg and the half-life is given as 4 h. For the same compound, the fraction unbound was 0.02.
For `CCOC(=O)NC1=C(N2CC2)C(=O)C(NC(=O)OCC)=C(N2CC2)C1=O`, the clearance is listed as 11 mL/min/kg.
In the case of `CN[C@@]1(c2ccccc2Cl)CCCCC1=O`, the clearance is given as 16.3 mL/min/kg.
In the case of `C=CC(=O)N1CCN(c2nc(=O)n(-c3c(C)ccnc3C(C)C)c3nc(-c4c(O)cccc4F)c(F)cc23)[C@@H](C)C1`, the Vd is given as 3.52 L/kg, the clearance is given as 7.28 mL/min/kg and the fraction unbound is given as 0.11.
For `CC1(C)C(=CC=C2CCCC(C=CC3=[N+](CCCCS(=O)(=O)O)c4ccc(S(=O)(=O)[O-])cc4C3(C)C)=C2Oc2ccc(CC(NC(=O)c3ccc(NCc4cnc5nc(N)[nH]c(=O)c5n4)cc3)C(=O)O)cc2)N(CCCCS(=O)(=O)O)c2ccc(S(=O)(=O)O)cc21` (stereo unspecified), the Vd is listed as 0.29 L/kg and the half-life is listed as 0.44 h.
In the case of `CCN1CCC[C@@H]1CNC(=O)c1cc(S(=O)(=O)CC)ccc1OC`, the clearance is given as 5.71 mL/min/kg.
For `CCC[C@H]1CC(C(=O)N[C@@H]([C@H]2O[C@@H](SC)[C@H](O)[C@@H](O)[C@@H]2O)[C@H](C)O)N(C)C1` (stereo partly specified), the clearance is listed as 1.98 mL/min/kg.
In the case of `Cc1nc(C)c2c(n1)N(Cc1ccc(-c3ccccc3-c3nnn[nH]3)cc1)C(=O)CC2`, the clearance is given as 7.17 mL/min/kg.
In the case of `OCC(O)CO`, the clearance is listed as 3.55 mL/min/kg.
For `NC(=O)c1cc[n+](COC[n+]2ccccc2C=NO)cc1`, the clearance is listed as 3.2 mL/min/kg.
For `COCc1c(C(=O)OC(C)C)ncc2[nH]c3ccc(OCc4ccccc4)cc3c12`, the clearance is listed as 13 mL/min/kg.
In the case of `CCCN[C@@H]1CCc2nc(N)sc2C1`, the clearance is listed as 8.2 mL/min/kg.
In the case of `C[C@]12CC[C@@H]3c4ccc(O)cc4CC[C@H]3[C@@H]1[C@@H](O)[C@@H](O)[C@@H]2O`, the half-life is given as 27 h and the fraction unbound is given as 0.52.
For `C[C@H](CCc1ccccc1)NC[C@@H](O)c1ccc(O)c(C(N)=O)c1`, the clearance is listed as 28.1 mL/min/kg.
For `Cc1cc2c(s1)Nc1ccccc1N=C2N1CCN(C)CC1`, the clearance is given as 5.81 mL/min/kg, the half-life is given as 43.5 h and the fraction unbound is given as 0.07.
In the case of `Cc1ccc(C(=O)c2ccc(CC(=O)O)n2C)cc1`, the clearance is listed as 1.3 mL/min/kg.
In the case of `CCC1=C(C)CN(C(=O)NCCc2ccc(S(=O)(=O)NC(=O)NC3CCC(C)CC3)cc2)C1=O` (stereo unspecified), the clearance is given as 0.76 mL/min/kg.
In the case of `CON=C(C(=O)NC1C(=O)N2C(C(=O)O)=C(C)CS[C@@H]12)c1csc(N)n1` (stereo partly specified), the clearance is listed as 2 mL/min/kg.
In the case of `CCOCCn1c(N2CCCN(C)CC2)nc2ccccc21`, the clearance is given as 12.5 mL/min/kg.
For `CN(C[C@H](O)CO)C(=O)c1c(I)c(NC(=O)C(CO)CO)c(I)c(C(=O)N(C)C[C@H](O)CO)c1I`, the clearance is listed as 1.33 mL/min/kg.
For `CCC1(CCC(C)C)C(=O)NC(=O)NC1=O`, the clearance is listed as 0.35 mL/min/kg.
For `CCOC(=O)Nc1c[n+](N2CCOCC2)no1`, the clearance is given as 9.52 mL/min/kg.
In the case of `C[C@@H]1C[C@H]2[C@@H]3C[C@H](F)C4=CC(=O)C=C[C@]4(C)[C@@]3(F)[C@H](O)C[C@]2(C)[C@@]1(O)C(=O)SCF`, the clearance is given as 15.6 mL/min/kg.
For `CCCCC1(CCCC)CN(c2ccccc2)c2cc(SC)c(OCC(=O)NC(C(=O)NC(CC)C(=O)O)c3ccc(O)cc3)cc2S(=O)(=O)N1` (stereo unspecified), the half-life is listed as 2.36 h and the fraction unbound is listed as 0.01.
For `COCC(=O)Nc1c(I)c(C(=O)NC[C@H](O)CO)c(I)c(C(=O)N(C)C[C@H](O)CO)c1I`, the clearance is listed as 1.53 mL/min/kg.
For `CCCC(NC(C)C(=O)N1C(C(=O)O)C[C@@H]2CCCC[C@H]21)C(=O)OCC` (stereo partly specified), the clearance is listed as 6.19 mL/min/kg.
In the case of `CCOc1cc(N)c(Cl)cc1C(=O)NC[C@H]1CN(Cc2ccc(F)cc2)CCO1`, the clearance is given as 16.2 mL/min/kg.
In the case of `CC1=C(/C=C/C(C)=C/C=C/C(C)=C/C(=O)Nc2ccc(O)cc2)C(C)(C)CCC1`, the clearance is given as 23.5 mL/min/kg.
For `C[C@H](NCCc1ccc(O)cc1)[C@H](O)c1ccc(O)cc1`, the clearance is given as 8.67 mL/min/kg.
For `COC(=O)C1C=C2CC(=O)CC[C@]2(C)[C@@]23O[C@H]2C[C@@]2(C)[C@H](CC[C@]24CCC(=O)O4)[C@@H]13` (stereo partly specified), the clearance is listed as 2.38 mL/min/kg.
In the case of `COc1cccc2c1C(=O)c1c(O)c3c(c(O)c1C2=O)C[C@](O)(C(=O)CO)C[C@@H]3O[C@@H]1C[C@H](N)[C@@H](O)[C@H](C)O1`, the clearance is given as 16.5 mL/min/kg.
For `CCCCCc1cc(O)c2c(c1)OC(C)(C)[C@H]1CCC(C)=C[C@H]21`, the clearance is listed as 3.33 mL/min/kg.
In the case of `C=CC(=O)Nc1cc(Nc2ncc(C(=O)OC(C)C)c(-c3cn(C)c4ccccc34)n2)c(OC)cc1N(C)CCN(C)C`, the Vd is given as 58.5 L/kg, the clearance is given as 38.3 mL/min/kg and the half-life is given as 18 h. For the same compound, the fraction unbound was 0.01.
For `CCCCN(CCCC)C[C@H](O)c1cc(Cl)cc2c1-c1ccc(Cl)cc1/C2=C/c1ccc(Cl)cc1`, the clearance is listed as 3.57 mL/min/kg.
For `CC(=O)OCC1=C(C(=O)O)N2C(=O)C(NC(=O)Cc3cccs3)[C@@H]2SC1` (stereo partly specified), the clearance is listed as 6.7 mL/min/kg.
For `CN[C@H]1CCc2[nH]c3ccc(C(N)=O)cc3c2C1`, the clearance is given as 3.09 mL/min/kg.
In the case of `CC(C)CC(NC(=O)C(Cc1ccccc1)NC(=O)C(N)Cc1ccccc1)C(=O)NC(CCCCN)C(=O)N1CCC(N)(C(=O)O)CC1` (stereo unspecified), the clearance is listed as 3.97 mL/min/kg and the fraction unbound is listed as 0.75.
For `CC(=O)N1CCN(c2ccc(OC[C@@H]3CO[C@](Cn4ccnc4)(c4ccc(Cl)cc4Cl)O3)cc2)CC1`, the clearance is given as 8.4 mL/min/kg.
For `C=C/C=C/C[C@@H](C)[C@@H](O)C1C(=O)NC(CC)C(=O)N(C)CC(=O)N(C)C(CC(C)C)C(=O)NC(C(C)C)C(=O)N(C)C(CC(C)C)C(=O)NC(C)C(=O)NC(C)C(=O)N(C)C(CC(C)C)C(=O)N(C)C(CC(C)C)C(=O)N(C)C(C(C)C)C(=O)N1C` (stereo partly specified), the Vd is listed as 35.9 L/kg, the clearance is listed as 17.7 mL/min/kg and the half-life is listed as 30 h. For the same compound, the fraction unbound was 0.03.
For `CC(NC(CCc1ccccc1)C(=O)O)C(=O)N1C(C(=O)O)C[C@@H]2CCCC[C@@H]21` (stereo partly specified), the clearance is listed as 1.67 mL/min/kg.
For `COCCCOc1ccnc(C[S@@+](O)c2nc3ccccc3[n-]2)c1C`, the clearance is listed as 6 mL/min/kg.
For `O=C(O)c1ccccc1Nc1cccc(C(F)(F)F)c1`, the clearance is listed as 1.43 mL/min/kg.
For `CNS(=O)(=O)CCC1CCC2[N]CC(C3CCN(C)CC3)C2C1` (stereo unspecified), the clearance is listed as 6.35 mL/min/kg.
In the case of `CON=C(C(=O)NC1C(=O)N2C(C(=O)O)=CCS[C@H]12)c1csc(=N)[nH]1` (stereo partly specified), the clearance is given as 1.79 mL/min/kg.
